System: MRC5 cells
Test: FACS cell cycle analysis (PI), MRC5
Assay type: cell-based, Human
Settings: 48 hr
Protocol: It is well documented that PLK1 is involved in multiple steps in mitosis, such as centrosome maturation and establishment of bipolar spindle. […] Therefore, the down-regulation of PLK1 would change the distribution of cells in different cell cycle stages. To test this possibility, fluorescence-activated cell sorter (FACS) analysis was used to analyze the DNA content of HeLa cells treated with the identified PLK1 inhibitors, DH281, DH285, and DH287. HeLa cells were first incubated in the absence and presence of these compounds at different concentrations (0, 0.12, 0.48 and 1.92 µM) for 48 hr. […] Treatment with a lower concentration of the compounds (0.12 and 0.48 µM) also led to an obvious increase of the cell population in G2/M phase (Figure 4A, Table 3). Moreover, the proportion of HeLa cells in G2/M phase increased over time after incubation in the presence of 0.8 µM of DH281, DH285 and DH287 (Figure 4B, Table 4). […] We also determined the cell cycle distribution of the non-cancer MRC5 cells after treatment with DH281 at different concentrations. […] It is also possible that inhibition of the kinase activity of the whole PLK family by beta-carboline compounds results in the defect in cell cycle progression.
Tumor cells were exposed to vehicle (0.1% DMSO) or compounds at 0, 0.12, 0.48, and 1.92 µM for 48 hr or 0.8 µM for 24, 48, and 72 hr; MRC5 cells were exposed to compounds at 0, 0.12, 0.48, and 1.92 µM for 48 hr. The floated and attached cells were treated by trypsinization and washed with cold PBS. The cells were then fixed with 70% (v/v) ethanol at 4°C overnight. The fixed cells were washed twice with PBS and incubated with 50 µg/mL RNase A (Sigma, USA) and 50 µg/mL propidium iodide (PI) (Sigma, USA) at 37°C for 30 min.

Cc1c2c(cc[n+]1Cc1ccccc1)c1ccc(OCc3ccc(F)cc3)cc1n2CCCc1ccccc1 [DH281]
cells in G1 (MRC5, 0.12 µM): 75.3%
cells in G2 (G2/M) (MRC5, 0.12 µM): 15.5%
cells in S (MRC5, 0.12 µM): 9.18%
cells in G1 (MRC5, 0.48 µM): 68.2%
cells in G2 (G2/M) (MRC5, 0.48 µM): 14.6%
cells in S (MRC5, 0.48 µM): 17.3. %
cells in G1 (MRC5, 1.92 µM): 59.3%
cells in S (MRC5, 1.92 µM): 25.6%

Reference: PMC3463587, “A Series of Beta-Carboline Derivatives Inhibit the Kinase Activity of PLKs” (PLoS ONE, 2012)
